Measurements taken from US20170275650A1, “ENDOSOMAL ESCAPE DOMAINS FOR […] OF MACR[…] CELLS” (priority 2014, published 2017).
“Also recorded” adds a separate entry of the source. Where a SMILES comes first, the peptide text is derived from it. Bridges are numbered along the chain shown (N, C = ends). Roman numbers before positions name the chains, in order. Where no end group is shown, it is not given here.

Experiments:
[1] = tested on: GFPβ1-10 expressing H1299c#G3 cells; format: cell-based, human; conditions: FACS FSC/SSC and viable cell number relative to untreated control cells
From the text: Cell morphology and cell viability.

[2] = tested on: GFPβ1-10 expressing H1299c#G3 cells; assay: split GFP fluorescence complementation transduction assay (FACS); format: cell-based, human; conditions: for escape efficiency compared to the six PEG unit (P6) spacer: GFPβ11-(S-S)-TAT-PEG(n)-GWWG series (FIG. 4); for GFP fluorescence / transduction compared to parental GFPβ11-(S-S)-TAT: dose-dependent comparison, up to 60 μM, FACS (FIG. 4, 5); for GFP fluorescence, head-to-head comparison of PTD/CPP delivery domains: 30 μM GFPβ11-(S-S)-PTD/CPP peptide, FACS (FIG. 3B, C)
Description: Peptide transduction. All transduction experiments were performed in 48-well plates. An optimized protocol was established. First, 15,000 or 20,000 cells were plated in each well. Next day, the indicated peptides were pipetted into eppendorf tubes. Transduction buffer (60% OptiMEM and 40% PBS) was added to peptide (100 μl total volume), directly mixed by pipetting up and down five times and then immediately transferred to cells. All pipetting steps were done in a laminar flow cell culture hood and standardized to 15 min for each plate before transferring the plate of cells to a 37° C. CO2 incubator for 1.5 h before addition of 500 μl DMEM supplemented with 10% FBS and another incubation round for 3.5 h in the 37° C. CO2 incubator (alternatively cells were incubated 2 h with peptides and another 4 h with DMEM, 10% FBS (FIG. 8b, c, d). For the transduction time-course, cells were incubated with peptides in transduction buffer until indicated time-points. All cells were trypzinized and collected in 250 μl OptiMEM without phenol red and analyzed by FACS (GFP, FSC/SSC). 4000 viable cells were analyzed per sample. Data is presented as fold change in fluorescence compared to non-treated cells.
To address these problems, the disclosure provides a self-assembling, bimolecular or split GFP fluorescence complementation system that was originally designed to tag and monitor proteins. GFP is composed of 11 β-strands that form a barrel structure allowing for peptidyl backbone cyclization and formation of a fluorescent chromophore. […] Importantly, co-incubation of GFPβ1-10 with the GFPβ11 peptide in trans efficiently reconstitutes GFP fluorescent chromophore bond and GFP fluorescence (FIG. 1a). To study PTD-mediated delivery, cell lines were generated that constitutively expressed the non-fluorescent GFPβ1-10 fragment and treated them in trans with a GFPβ11-PTD/CPP peptide to restore GFP fluorescence.
Cell clones of various human cell lines constitutively expressing the non-fluorescent large GFPβ1-10 fragment, including H1299 non-small cell lung carcinoma, HaCaT immortalized keratinocytes, and MDA-MB-231 and MCF7 breast carcinomas, and assayed for reconstituted intracellular GFP fluorescence after treatment with transducible GFPβ11-PTD/CPP peptides by FACS (FIG. 1a). Starting with human H1299 cells, known to be a good model for PTD/CPP-mediated uptake, two GFPβ1-10 expressing clones were generated (c#G3 and c#G4) (FIG. 8a). GFPβ1-10 expressing H1299c#G3 cells were treated for 1.5 h with increasing amounts of transducible GFPβ11-TAT peptide (0-60 μM), followed by an additional 3.5 h in DMEM supplemented with 10% FBS. At 5 h post-addition of GFPβ11-TAT peptide, cells were trypsinized and live cell assayed by FACS.

## CC[C@H](C)[C@H](NC(=O)CNC(=O)[C@H](C)NC(=O)[C@H](C)NC(=O)[C@H](CC(N)=O)NC(=O)[C@@H](NC(=O)[C@H](Cc1ccc(O)cc1)NC(=O)[C@H](CCC(=O)O)NC(=O)[C@H](Cc1c[nH]cn1)NC(=O)[C@H](CC(C)C)NC(=O)[C@@H](NC(=O)[C@H](CCSC)NC(=O)[C@H](Cc1c[nH]cn1)NC(=O)[C@H](CC(=O)O)NC(=O)[C@@H](N)CCCNC(=N)N)C(C)C)C(C)C)C(=O)N[C@H](C(=O)NCC(=O)NCC(=O)N[C@@H](CO)C(=O)NCC(=O)NCC(=O)N[C@@H](CSSC[C@H](N)C(=O)NCC(=O)NCC(=O)N[C@@H](CCCNC(=N)N)C(=O)N[C@@H](CCCCN)C(=O)N[C@@H](CCCCN)C(=O)N[C@@H](CCCNC(=N)N)C(=O)N[C@@H](CCCNC(=N)N)C(=O)N[C@@H](CCC(N)=O)C(=O)N[C@@H](CCCNC(=N)N)C(=O)N[C@@H](CCCNC(=N)N)C(=O)N[C@@H](CCCNC(=N)N)C(N)=O)C(N)=O)[C@@H](C)O [GFPβ11-(S-S)-TAT]
[1]
  cytotoxicity / morphological changes: absence of cytotoxicity

## CC[C@H](C)[C@H](NC(=O)CNC(=O)[C@H](C)NC(=O)[C@H](C)NC(=O)[C@H](CC(N)=O)NC(=O)[C@@H](NC(=O)[C@H](Cc1ccc(O)cc1)NC(=O)[C@H](CCC(=O)O)NC(=O)[C@H](Cc1c[nH]cn1)NC(=O)[C@H](CC(C)C)NC(=O)[C@@H](NC(=O)[C@H](CCSC)NC(=O)[C@H](Cc1c[nH]cn1)NC(=O)[C@H](CC(=O)O)NC(=O)[C@@H](N)CCCNC(=N)N)C(C)C)C(C)C)C(=O)N[C@H](C(=O)NCC(=O)NCC(=O)N[C@@H](CO)C(=O)NCC(=O)NCC(=O)N[C@@H](CSSC[C@H](N)C(=O)NCC(=O)NCC(=O)N[C@@H](CCCNC(=N)N)C(=O)N[C@@H](CCCCN)C(=O)N[C@@H](CCCCN)C(=O)N[C@@H](CCCNC(=N)N)C(=O)N[C@@H](CCCNC(=N)N)C(=O)N[C@@H](CCC(N)=O)C(=O)N[C@@H](CCCNC(=N)N)C(=O)N[C@@H](CCCNC(=N)N)C(=O)N[C@@H](CCCNC(=N)N)C(=O)NCC(=O)N[C@@H](Cc1c[nH]c2ccccc12)C(=O)N[C@@H](Cc1c[nH]c2ccccc12)C(=O)NCC(N)=O)C(N)=O)[C@@H](C)O [GFPβ11-(S-S)-TAT-WW] (I: H-RDHMVLHEYVNAAGITGGSGGC-NH2 / II: H-CGGRKKRRQRRRGWWG-NH2; disulfide I:22-II:1)
[1]
  cytotoxicity / morphological changes: severely increased cytotoxicity

## RDHMVLHEYVNAAGIT-GGSGGC-(S-S)-CGG-RKKRRQRRR-(PEG)6-GWGGWG [GFPβ11-(S-S)-TAT-P6-WGGW]
[2]; PEG6-spaced EED peptides (FIG. 5A-D)
  enhancement compared to the -GWWG motif: decreased the enhancement approximately two-fold

## RDHMVLHEYVNAAGIT-GGSGGC-(S-S)-CGG-RKKRRQRRR-(PEG)18-GWWG (disulfide bond, (PEG)18-GWWG) [GFPβ11-(S-S)-TAT-P18-WW]
[2]
  escape efficiency compared to the six PEG unit (P6) spacer: lower escape efficiency
  GFP fluorescence / transduction compared to parental GFPβ11-(S-S)-TAT: reduced GFPβ11 delivery below that of the control GFPβ11-(S-S)-TAT

## RDHMVLHEYVNAAGIT-GGSGGC-(S-S)-CGG-GALFLGFLGAAGSTMGAWSQPKKKRKV (chain 1 RDHMVLHEYVNAAGITGGSGGC; chain 2 CGGGALFLGFLGAAGSTMGAWSQPKKKRKV; also: disulfide to a chain's N/C-terminus) [GFPβ11-(S-S)-MPG]
[2]
  GFP fluorescence, head-to-head comparison of PTD/CPP delivery domains: only slightly above background

## RDHMVLHEYVNAAGIT-GGSGGC-(S-S)-CGG-RKKRRQRRR-(PEG)6-GFFG (disulfide bond, (PEG)6-GFFG) [GFPβ11-(S-S)-TAT-P6-GFFG]
[2]
  GFP fluorescence / transduction compared to parental GFPβ11-(S-S)-TAT: no net effect

## RDHMVLHEYVNAAGIT-GGSGGC-(5-5)-CGG-RKKRRQRRR-(PEG)6-GWG [GFPβ11-(S-S)-TAT-P6-GWG]
[2]
  GFP fluorescence / transduction compared to parental GFPβ11-(S-S)-TAT: no net effect

## RDHMVLHEYVNAAGIT-GGSGGC-(S-S)-CGG-RKKRRQRRR-(PEG)12-GWWG (disulfide bond, (PEG)12-GWWG) [GFPβ11-(S-S)-TAT-P12-WW]
[2]
  escape efficiency compared to the six PEG unit (P6) spacer: lower escape efficiency

## CC[C@H](C)[C@H](NC(=O)CNC(=O)[C@H](C)NC(=O)[C@H](C)NC(=O)[C@H](CC(N)=O)NC(=O)[C@@H](NC(=O)[C@H](Cc1ccc(O)cc1)NC(=O)[C@H](CCC(=O)O)NC(=O)[C@H](Cc1c[nH]cn1)NC(=O)[C@H](CC(C)C)NC(=O)[C@@H](NC(=O)[C@H](CCSC)NC(=O)[C@H](Cc1c[nH]cn1)NC(=O)[C@H](CC(=O)O)NC(=O)[C@@H](N)CCCNC(=N)N)C(C)C)C(C)C)C(=O)N[C@H](C(=O)NCC(=O)NCC(=O)N[C@@H](CO)C(=O)NCC(=O)NCC(=O)N[C@@H](CSSC[C@H](N)C(=O)NCC(=O)NCC(=O)N[C@@H](C)C(=O)NCC(=O)N[C@@H](Cc1ccc(O)cc1)C(=O)N[C@@H](CC(C)C)C(=O)N[C@@H](CC(C)C)C(=O)NCC(=O)N[C@@H](CCCCN)C(=O)N[C@H](C(=O)N[C@@H](CC(N)=O)C(=O)N[C@@H](CC(C)C)C(=O)N[C@@H](CCCCN)C(=O)N[C@@H](C)C(=O)N[C@@H](CC(C)C)C(=O)N[C@@H](C)C(=O)N[C@@H](C)C(=O)N[C@@H](CC(C)C)C(=O)N[C@@H](C)C(=O)N[C@@H](CCCCN)C(=O)N[C@@H](CCCCN)C(=O)N[C@H](C(=O)N[C@@H](CC(C)C)C(N)=O)[C@@H](C)CC)[C@@H](C)CC)C(N)=O)[C@@H](C)O [GFPβ11-(S-S)-TP10]
[1]
  cytotoxicity / morphological changes: very high level of cytotoxicity; also recorded: high toxicity

## RDHMVLHEYVNAAGIT-GGSGGC-(S-S)-CGG-RKKRRQRRR-(PEG)6-GFWG [GFPβ11-(S-S)-TAT-P6-GFWG]
[2]
  GFP fluorescence / transduction compared to parental GFPβ11-(S-S)-TAT: two-fold increase

## RDHMVLHEYVNAAGIT-GGSGGC-(S-S)-CGG-LLIILRRRIRKQAHAHSK [GFPβ11-(S-S)-pVEC]
[2]
  GFP fluorescence, head-to-head comparison of PTD/CPP delivery domains: only slightly above background

## RDHMVLHEYVNAAGIT-GGSGGC-(S-S)-CGG-RKKRRQRRR-(PEG)6-GG [GFPβ11-(S-S)-TAT-P6-GG]
[2]
  GFP fluorescence / transduction compared to parental GFPβ11-(S-S)-TAT: lower uptake than GFPβ11-(S-S)-TAT peptide

## CC[C@H](C)[C@H](NC(=O)CNC(=O)[C@H](C)NC(=O)[C@H](C)NC(=O)[C@H](CC(N)=O)NC(=O)[C@@H](NC(=O)[C@H](Cc1ccc(O)cc1)NC(=O)[C@H](CCC(=O)O)NC(=O)[C@H](Cc1c[nH]cn1)NC(=O)[C@H](CC(C)C)NC(=O)[C@@H](NC(=O)[C@H](CCSC)NC(=O)[C@H](Cc1c[nH]cn1)NC(=O)[C@H](CC(=O)O)NC(=O)[C@@H](N)CCCNC(=N)N)C(C)C)C(C)C)C(=O)N[C@H](C(=O)NCC(=O)NCC(=O)N[C@@H](CO)C(=O)NCC(=O)NCC(=O)N[C@@H](CCCNC(=N)N)C(=O)N[C@@H](CCCCN)C(=O)N[C@@H](CCCCN)C(=O)N[C@@H](CCCNC(=N)N)C(=O)N[C@@H](CCCNC(=N)N)C(=O)N[C@@H](CCC(N)=O)C(=O)N[C@@H](CCCNC(=N)N)C(=O)N[C@@H](CCCNC(=N)N)C(=O)N[C@@H](CCCNC(=N)N)C(N)=O)[C@@H](C)O [GFPβ11-TAT] (H-RDHMVLHEYVNAAGITGGSGGRKKRRQRRR-NH2)
[1]
  cytotoxicity / morphological changes: did not display any cytotoxicity or morphological changes

## RDHMVLHEYVNAAGIT-GGSGGC-(S-S)-CGG-RRRRRRRR (chain 1 RDHMVLHEYVNAAGITGGSGGC; chain 2 CGGRRRRRRRR; also: disulfide to a chain's N/C-terminus) [GFPβ11-(S-S)-8xArg]
[2]
  GFP fluorescence, head-to-head comparison of PTD/CPP delivery domains: significantly better uptake

## RDHMVLHEYVNAAGIT-GGSGGC-(S-S)-CGG-KKKKKKKK (chain 1 RDHMVLHEYVNAAGITGGSGGC; chain 2 CGGKKKKKKKK; also: disulfide to a chain's N/C-terminus) [GFPβ11-(S-S)-8xLys]
[2]
  GFP fluorescence, head-to-head comparison of PTD/CPP delivery domains: failed to induce GFP fluorescence to any high degree
[2]; 30 μM peptide plus 100 μM Chloroquine (FIG. 3C)
  GFP fluorescence after addition of Chloroquine: failed to induce GFP fluorescence to any high degree

## RDHMVLHEYVNAAGIT-GGSGGC-(S-S)-CGG-RKKRRQRRR-(PEG)6-GWWG [GFPβ11-(S-S)-TAT-P6-GWWG]
[2]
  GFP fluorescence / transduction compared to parental GFPβ11-(S-S)-TAT: retained enhanced cytoplasmic delivery; also recorded: four-fold increase
